Experiments:
GABAA receptor subtypes = assay: FLIPR calcium flux, all 18 subtypes taken together; assay type: cell-based; details: 18 subtypes tested
Description: (§1) Cells expressing the indicated GABAA receptor subtype were exposed to gamma-aminobutyric acid in the presence of varying concentrations of either CV-10155 or SPNC-019, calcium flux was measured using a fluorometric imaging plate reader (FLIPR), and EC50 values for compounds were determined.
The results further indicate that the isomeric purity of compositions containing compounds of Formula (I) greatly impacts the utility of such compositions as therapeutic agents.

α4β3δ GABAA receptor [1] = target: T1, α4β3δ GABAA receptor (Homo sapiens, UniProt O14764+P28472+P48169); assay: FLIPR calcium flux, modulation of GABA response; assay type: cell-based; parameters: expressed in transfected cells; details: comparison of Example 1 data
Description: as §1

α1β2γ2 GABAA receptors = target: T2, α1β2γ2 GABAA receptors (Homo sapiens, UniProt P14867+P18507+P47870); details: 10 μM steroid, GABA 2 μM (EC20), LTK cells; cited from earlier work
T2 construct: expressed in transfected cells; host or cells: LTK cells, stably transfected

α4β3δ GABAA receptor [2] = target: T1, α4β3δ GABAA receptor; parameters: expressed in transfected cells; host or cells: CHO cells, transiently transfected; details: 10 μM steroid, GABA 2 μM (EC20), CHO cells; cited from earlier work
[3] = target: picrotoxin binding site of GABAA receptors; details: membranes from cortices of rat brains; read-out: IC50 in the TBPS displacement assay; cited from earlier work

T1 sequence (P48169 36-554): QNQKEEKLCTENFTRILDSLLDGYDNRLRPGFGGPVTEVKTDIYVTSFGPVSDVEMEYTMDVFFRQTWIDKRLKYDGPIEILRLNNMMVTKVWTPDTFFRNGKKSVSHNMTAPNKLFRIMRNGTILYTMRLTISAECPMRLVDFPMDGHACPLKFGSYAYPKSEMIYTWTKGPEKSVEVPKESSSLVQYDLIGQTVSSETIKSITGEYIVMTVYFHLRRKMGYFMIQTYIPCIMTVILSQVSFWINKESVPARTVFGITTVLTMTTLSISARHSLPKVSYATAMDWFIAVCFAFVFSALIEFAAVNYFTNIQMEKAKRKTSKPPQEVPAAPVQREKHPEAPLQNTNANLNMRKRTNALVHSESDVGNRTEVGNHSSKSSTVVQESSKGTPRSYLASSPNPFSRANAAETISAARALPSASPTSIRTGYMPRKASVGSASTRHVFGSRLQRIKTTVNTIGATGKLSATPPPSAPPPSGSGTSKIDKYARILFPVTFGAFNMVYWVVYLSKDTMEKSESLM
T1 sequence (P28472 26-473): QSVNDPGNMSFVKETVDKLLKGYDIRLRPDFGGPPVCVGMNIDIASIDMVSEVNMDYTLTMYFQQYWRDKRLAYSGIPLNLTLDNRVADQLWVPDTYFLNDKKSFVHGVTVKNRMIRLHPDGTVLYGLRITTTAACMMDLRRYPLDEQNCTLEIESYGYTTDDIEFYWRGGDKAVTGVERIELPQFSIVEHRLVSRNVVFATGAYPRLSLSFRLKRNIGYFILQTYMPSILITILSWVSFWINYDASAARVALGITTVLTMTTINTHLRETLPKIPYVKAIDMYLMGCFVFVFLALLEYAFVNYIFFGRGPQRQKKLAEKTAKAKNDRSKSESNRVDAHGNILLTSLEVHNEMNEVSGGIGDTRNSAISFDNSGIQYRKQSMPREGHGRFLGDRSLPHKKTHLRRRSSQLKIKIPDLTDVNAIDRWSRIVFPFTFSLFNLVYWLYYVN
T1 sequence (O14764 25-452): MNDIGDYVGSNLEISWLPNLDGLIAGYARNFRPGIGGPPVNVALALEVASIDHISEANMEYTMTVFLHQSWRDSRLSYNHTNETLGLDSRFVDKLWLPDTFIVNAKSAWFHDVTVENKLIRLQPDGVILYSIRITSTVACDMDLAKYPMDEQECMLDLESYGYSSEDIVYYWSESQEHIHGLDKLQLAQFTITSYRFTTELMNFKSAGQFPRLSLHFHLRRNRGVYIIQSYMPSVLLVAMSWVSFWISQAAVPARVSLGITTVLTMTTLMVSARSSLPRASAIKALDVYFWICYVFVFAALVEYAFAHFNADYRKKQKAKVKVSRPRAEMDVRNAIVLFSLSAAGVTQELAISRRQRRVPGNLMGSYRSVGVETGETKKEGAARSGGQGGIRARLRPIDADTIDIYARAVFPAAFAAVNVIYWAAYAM
T2 sequence (P14867 28-456): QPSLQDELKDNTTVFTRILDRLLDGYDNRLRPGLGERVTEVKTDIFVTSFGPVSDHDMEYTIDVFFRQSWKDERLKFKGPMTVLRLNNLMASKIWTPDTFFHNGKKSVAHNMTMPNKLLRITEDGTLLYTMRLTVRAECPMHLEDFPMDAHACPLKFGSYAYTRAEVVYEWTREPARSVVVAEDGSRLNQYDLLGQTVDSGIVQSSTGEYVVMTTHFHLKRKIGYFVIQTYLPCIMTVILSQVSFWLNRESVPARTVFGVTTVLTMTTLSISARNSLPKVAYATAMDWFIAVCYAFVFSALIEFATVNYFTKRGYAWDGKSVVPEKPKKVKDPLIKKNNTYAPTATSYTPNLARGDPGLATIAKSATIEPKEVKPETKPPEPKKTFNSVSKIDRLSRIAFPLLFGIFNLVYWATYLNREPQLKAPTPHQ
T2 sequence (P47870 25-512 limits assumed): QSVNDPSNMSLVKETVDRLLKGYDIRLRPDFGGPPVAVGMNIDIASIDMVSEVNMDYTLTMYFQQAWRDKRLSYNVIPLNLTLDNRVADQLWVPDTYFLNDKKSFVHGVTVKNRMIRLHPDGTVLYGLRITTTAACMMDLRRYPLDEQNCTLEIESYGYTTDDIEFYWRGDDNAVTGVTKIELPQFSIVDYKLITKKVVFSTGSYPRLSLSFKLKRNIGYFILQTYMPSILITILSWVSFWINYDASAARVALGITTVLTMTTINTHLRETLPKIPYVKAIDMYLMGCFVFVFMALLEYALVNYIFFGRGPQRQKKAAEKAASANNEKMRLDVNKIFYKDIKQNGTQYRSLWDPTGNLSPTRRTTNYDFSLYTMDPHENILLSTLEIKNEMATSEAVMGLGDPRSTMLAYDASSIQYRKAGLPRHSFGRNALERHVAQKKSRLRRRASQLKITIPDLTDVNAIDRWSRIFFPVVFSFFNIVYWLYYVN
T2 sequence (P18507 40-475): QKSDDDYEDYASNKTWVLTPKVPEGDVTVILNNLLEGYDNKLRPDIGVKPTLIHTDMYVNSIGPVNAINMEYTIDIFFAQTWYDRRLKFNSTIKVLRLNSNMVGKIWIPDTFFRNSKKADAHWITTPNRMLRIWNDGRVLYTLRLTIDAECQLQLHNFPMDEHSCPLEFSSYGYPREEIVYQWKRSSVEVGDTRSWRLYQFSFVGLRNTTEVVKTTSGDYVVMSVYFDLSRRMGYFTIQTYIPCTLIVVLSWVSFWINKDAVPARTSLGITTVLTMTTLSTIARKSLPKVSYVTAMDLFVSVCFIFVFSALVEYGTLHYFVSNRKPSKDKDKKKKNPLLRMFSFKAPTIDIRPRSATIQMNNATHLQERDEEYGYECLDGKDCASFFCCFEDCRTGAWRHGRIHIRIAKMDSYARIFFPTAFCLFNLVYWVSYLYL

Compound | modulating activity across the GABAA receptor subtypes tested (GABAA receptor subtypes) | IC50 [3] | further results
C[C@@]1(O)CC[C@@]2(C)[C@@H](CC[C@@H]3[C@@H]2CC[C@]2(C)[C@@H](C(=O)Cn4cc(C#N)cn4)CC[C@@H]32)C1 [CV-10155, 1-[2-[(3R,5S,8R,9S,10S,13S,14S,17S)-3-hydroxy-3,10,13-trimethyl-1,2,4,5,6,7,8,9,11,12,14,15,16,17-tetradecahydrocyclopenta[a]phenanthren-17-yl]-2-oxoethyl]pyrazole-4-carbonitrile] | some level of positive allosteric modulating activity in all of the GABAA receptor subtypes tested |  | preferential modulation of α4β3δ compared to α1β2γ2 GABAA receptors (α4β3δ GABAA receptor [1]): preferentially modulate; preferential modulation of α4β3δ compared to α1β2γ2 GABAA receptors (α4β3δ GABAA receptor [1]; listed as Formula (I)): substantially more active
C[C@@]1(O)CC[C@@]2(C)[C@@H](CC[C@@H]3[C@@H]2CC[C@]2(C)[C@@H](C(=O)Cn4ccc(C#N)n4)CC[C@@H]32)C1 [Compound 121] |  | 10 to 50 nM | efficacy (relative potentiation of GABA-mediated conductance) (α1β2γ2 GABAA receptors): > 500%; efficacy (relative potentiation of GABA-mediated conductance) (α4β3δ GABAA receptor [2]): > 500%
C[C@]1(O)CC[C@@]2(C)[C@@H](CC[C@@H]3[C@@H]2CC[C@]2(C)[C@@H](C(=O)Cn4cc(C#N)cn4)CC[C@@H]32)C1 [SPNC-019] | no modulating activity in 15 of the 18 GABAA receptor subtypes tested |  | 
C[C@@]1(O)CC[C@@]2(C)[C@H](CC[C@@H]3[C@@H]2CC[C@]2(C)[C@@H](C(=O)Cn4cc(C#N)cn4)CC[C@@H]32)C1 [Compound 10] |  | < 10 nM | 

Reference: patent publication US20230372365A1, “METHODS OF TREATING FIBROMYALGIA WITH NEUROACTIVE STEROIDS” (priority 2020, published 2023)
